# Measurements published in the supplement of paper PMC11061612.
# Tests used:
# [1] = test system: JVM-3 (B-Cell Non-Hodgkin's Lymphoma); assay: Bliss excess, mean over the matrix (fraction); higher = more synergy
# In short: (§1)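 After 24 hours at 37°C and 5% CO2 in 1536-well plates, cells in DMEM/F12 or RPMI plus 10% FBS received two-drug dose matrices for 72 hours. Viability came from CellTiter-Glo 2.0 luminescence and was scaled as inhibition, anchored at 0 by vehicle wells and at 1 by blank wells. Combination Emax is taken as the second-highest inhibition in the matrix, and Bliss excess as the observed combination effect less EA + EB − EA·EB, with EA and EB the single-agent effects.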
# [2] = test system: OE19 (Esophageal Adenocarcinoma); assay: as above
# In short: as §1
# [3] = test system: VA-ES-BJ (Other Solid Carcinomas); assay: as above
# In short: as §1
# [4] = test system: NEC8 (Other Solid Carcinomas); assay: as above
# In short: as §1
# [5] = test system: KMOE-2 (Acute Myeloid Leukemia); assay: as above
# In short: as §1
# PWR-1E (Non-Cancerous) = assay: as above
# In short: as §1
# [6] = test system: OVCAR-4 (Ovarian Carcinoma); assay: as above
# In short: as §1
# [7] = test system: C-4-I (Cervical Carcinoma); assay: as above
# In short: as §1
# [8] = test system: SU8686 (Pancreatic Carcinoma); assay: as above
# In short: as §1
# [9] = test system: SCC-15 (Oral Cavity Carcinoma); assay: as above
# In short: as §1
# EW-24 (Ewing's Sarcoma) = assay: combination Emax (second highest fraction inhibited in the dose matrix, 72 h); higher = more inhibition; extreme values may be limits of the assay
# In short: as §1
# [10] = test system: AMO-1 (Plasma Cell Myeloma); assay: as above
# In short: as §1
# [11] = test system: SW13 (Other Solid Carcinomas); assay: as above
# In short: as §1
# [12] = test system: NCI-H727 (Other Solid Carcinomas); assay: as above
# In short: as §1
# [13] = test system: RF-48 (B-Cell Non-Hodgkin's Lymphoma); assay: as above
# In short: as §1
# [14] = test system: Ca9-22 (Head and Neck Carcinoma); assay: as above
# In short: as §1
# [15] = test system: MIA-PaCa-2 (Pancreatic Carcinoma); assay: as above
# In short: as §1
# [16] = test system: KYSE-450 (Esophageal Squamous Cell Carcinoma); assay: as above
# In short: as §1
# [17] = test system: LU-65 (Non-Small Cell Lung Carcinoma); assay: as above
# In short: as §1
# YH-13 (Glioblastoma) = assay: as above
# In short: as §1
# 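Wherever Bliss excess, mean over the matrix is given: after 72 h of two-drug dosing.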
SMILES,Bliss excess [1],Bliss excess [2],Bliss excess [3],Bliss excess [4],Bliss excess [5],Bliss excess (PWR-1E (Non-Cancerous)),Bliss excess [6],Bliss excess [7],Bliss excess [8],Bliss excess [9],combination Emax (EW-24 (Ewing's Sarcoma)),combination Emax [10],combination Emax [11],combination Emax [12],combination Emax [13],combination Emax [14],combination Emax [15],combination Emax [16],combination Emax [17],combination Emax (YH-13 (Glioblastoma))
"Cc1cc2ncnn2cc1Nc1ncc2c(n1)n(C1CCOCC1)c(=O)n2C [AZD7648] + O=C(c1cc(Cc2n[nH]c(=O)c3ccccc23)ccc1F)N1CCN(C(=O)C2CC2)CC1 [Olaparib] (first compound max 10 µM, 7x7, partner max 10 µM)",-0.0053,-0.0097,-0.0416,0.0327,-0.0066,-0.0005,-0.0214,0.005,-0.0457,-0.0408,0.214,0.196,0.203,0.218,0.322,0.113,0.22,0.0972,0.312,0.16
"CN(CCO)CC[C@H](CSc1ccccc1)Nc1ccc(S(=O)(=O)NC(=O)c2ccc(N3CCC([C@@H](O)c4ccccc4-c4ccc(Cl)cc4)CC3)cc2)cc1S(=O)(=O)C(F)(F)F [AZD4320] + Nc1ccn([C@@H]2O[C@H](CO)[C@@H](O)C2(F)F)c(=O)n1 [Gemcitabine] (first compound max 1 µM, 7x7, partner max 0.3 µM)",–,–,–,–,–,–,–,–,–,–,0.98,0.953,0.927,0.634,0.955,0.927,0.771,0.202,0.492,0.852
"CN(CCO)CC[C@H](CSc1ccccc1)Nc1ccc(S(=O)(=O)NC(=O)c2ccc(N3CCC([C@@H](O)c4ccccc4-c4ccc(Cl)cc4)CC3)cc2)cc1S(=O)(=O)C(F)(F)F [AZD4320] + CCN(CCO)CCCOc1ccc2c(Nc3cc(CC(=O)Nc4cccc(F)c4)[nH]n3)ncnc2c1 [AZD2811] (first compound max 1 µM, 7x7, partner max 1 µM)",0.165,-0.0349,-0.0259,-0.0138,0.0171,0.0514,0.045,0.0557,-0.03,0.0101,0.865,0.291,0.378,0.512,0.881,0.572,0.512,0.153,0.432,0.704
"Cc1nc(Nc2ncc(C(=O)Nc3c(C)cccc3Cl)s2)cc(N2CCN(CCO)CC2)n1 [Dasatinib] + CC(=O)Nc1cccc(-n2c(=O)n(C3CC3)c(=O)c3c(Nc4ccc(I)cc4F)n(C)c(=O)c(C)c32)c1 [Trametinib] (first compound max 2 µM, 7x7, partner max 1 µM)",–,-0.063,-0.033,-0.0277,-0.0125,0.0481,0.0286,0.0328,-0.0328,-0.0213,0.171,0.405,0.716,0.701,0.414,0.878,0.894,0.382,0.564,0.784
"CN(CCO)CC[C@H](CSc1ccccc1)Nc1ccc(S(=O)(=O)NC(=O)c2ccc(N3CCC([C@@H](O)c4ccccc4-c4ccc(Cl)cc4)CC3)cc2)cc1S(=O)(=O)C(F)(F)F [AZD4320] + Cn1cnc2c(F)c(Nc3ccc(Br)cc3Cl)c(C(=O)NOCCO)cc21 [Selumetinib] (first compound max 1 µM, 7x7, partner max 3 µM)",-0.0225,-0.0202,–,0.021,0.0415,0.0024,0.0108,0.135,-0.0002,0.042,0.892,0.418,0.544,0.973,0.951,0.593,0.61,0.386,0.753,0.511
"N#Cc1cnc(Nc2cc(NC[C@H]3CNCCO3)c(C(F)(F)F)cn2)cn1 [SRA737] + C=CCn1c(=O)c2cnc(Nc3ccc(N4CCN(C)CC4)cc3)nc2n1-c1cccc(C(C)(C)O)n1 [AZD1775] (first compound max 10 µM, partner max 1 µM)",–,–,–,–,–,–,–,–,–,–,0.639,0.967,0.218,0.667,0.467,0.957,0.911,0.906,0.887,0.812
"C[C@@H](c1ccc2nccn2c1)n1nnc2ncc(-c3cnn(C)c3)nc21 [Savolitinib] + CC1(C)CCC(CN2CCN(c3ccc(C(=O)NS(=O)(=O)c4ccc(NCC5CCOCC5)c([N+](=O)[O-])c4)c(Oc4cnc5[nH]ccc5c4)c3)CC2)=C(c2ccc(Cl)cc2)C1 [Venetoclax] (first compound max 1 µM, 7x7, partner max 1 µM)",–,-0.0377,-0.0433,-0.0236,-0.0414,-0.034,-0.0791,-0.0585,-0.0617,-0.0613,0.172,0.326,0.139,0.157,0.384,0.193,0.164,0.0763,0.129,0.237
"N#Cc1cnc(Nc2cc(NC[C@H]3CNCCO3)c(C(F)(F)F)cn2)cn1 [SRA737] + CCc1c2c(nc3ccc(O)cc13)-c1cc3c(c(=O)n1C2)COC(=O)[C@]3(O)CC [SN-38] (first compound max 10 µM, 7x7, partner max 0.3 µM)",–,–,–,–,–,–,–,–,–,–,0.768,0.967,0.948,0.609,0.769,0.954,0.942,0.94,0.906,0.832
"N#Cc1cnc(Nc2cc(NC[C@H]3CNCCO3)c(C(F)(F)F)cn2)cn1 [SRA737] + O=c1[nH]cc(F)c(=O)[nH]1 [5-Fluorouracil] (first compound max 10 µM, 7x7, partner max 20 µM)",–,–,–,–,–,–,–,–,–,–,0.585,0.882,0.0967,0.428,0.566,0.606,0.252,0.379,0.778,0.542
"C[C@@H](c1ccc2nccn2c1)n1nnc2ncc(-c3cnn(C)c3)nc21 [Savolitinib] + Cc1c2c(nn1C)CSCc1cc(n(C)n1)CSc1cc(c3ccccc3c1)OCCCc1c(C(=O)O)n(C)c3c-2c(Cl)ccc13 [AZD5991] (first compound max 1 µM, 7x7, partner max 1 µM)",–,-0.093,-0.0299,-0.0093,-0.0312,-0.0664,-0.0713,-0.111,-0.0127,-0.0222,0.196,1,0.735,0.203,0.275,0.143,0.204,0.115,0.179,0.276
"CN(CCO)CC[C@H](CSc1ccccc1)Nc1ccc(S(=O)(=O)NC(=O)c2ccc(N3CCC([C@@H](O)c4ccccc4-c4ccc(Cl)cc4)CC3)cc2)cc1S(=O)(=O)C(F)(F)F [AZD4320] + CC(=O)O[C@H]1C(=O)[C@@]2(C)[C@H]([C@H](OC(=O)c3ccccc3)[C@]3(O)C[C@H](OC(=O)[C@H](O)[C@@H](NC(=O)c4ccccc4)c4ccccc4)C(C)=C1C3(C)C)[C@]1(OC(C)=O)CO[C@@H]1C[C@@H]2O [Paclitaxel] (first compound max 1 µM, 7x7, partner max 3 µM)",–,–,–,–,–,–,–,–,–,–,0.968,1,1,0.82,0.989,0.997,0.898,0.875,0.951,1
"COc1cc2ncnc(Nc3ccc(F)c(Cl)c3)c2cc1OCCCN1CCOCC1 [Gefitinib] + CC(C)n1c(=O)n(C)c2cnc3cc(F)c(-c4ccc(OCCCN5CCCCC5)nc4)cc3c21 [AZD1390] (first compound max 10 µM, 7x7, partner max 0.3 µM)",–,-0.0181,-0.0513,-0.0278,-0.0589,-0.0234,-0.0561,-0.042,-0.0378,-0.0571,0.189,0.323,0.724,0.157,0.244,0.625,0.208,0.338,0.268,0.145
"N#Cc1cnc(Nc2cc(NC[C@H]3CNCCO3)c(C(F)(F)F)cn2)cn1 [SRA737] + Nc1ccn([C@@H]2O[C@H](CO)[C@@H](O)C2(F)F)c(=O)n1 [Gemcitabine] (first compound max 10 µM, 7x7, partner max 0.3 µM)",–,–,–,–,–,–,–,–,–,–,0.691,0.974,0.944,0.436,0.746,0.867,0.951,0.83,0.862,0.813
"Cc1cc2ncnn2cc1Nc1ncc2c(n1)n(C1CCOCC1)c(=O)n2C [AZD7648] + COc1cc([C@@H]2c3cc4c(cc3[C@@H](O[C@@H]3O[C@@H]5CO[C@@H](C)O[C@H]5[C@H](O)[C@H]3O)[C@H]3COC(=O)[C@H]23)OCO4)cc(OC)c1O [Etoposide] (first compound max 10 µM, 7x7, partner max 10 µM)",–,–,–,–,–,–,–,–,–,–,0.714,0.942,0.86,0.269,0.755,0.869,0.945,0.459,0.897,0.641
